{"source": "patent US20210380586A1", "about": "“2-INDOLYL IMIDAZO[4,5-D]PHENANTHROLINE POLYMORPHS AND COMPOSITIONS REGARDING THE SAME” (Aptose Biosciences Inc., priority 2020, published 2021)", "type_in_all_cases": "physicochemical", "key": {"[1]": {"experiment": "Variable relative humidity (VRH)-XRPD analysis", "procedure": "To investigate the behavior of Crystalline Form 2 at various humidities and evaluate conditions that favor generation of Form 2 (tetrahydrate) versus Form 3 (dihydrate), Form 2 was characterized by VRH-XRPD. The analysis was conducted by beginning at ambient RH (˜50%) and lowering to 0% RH for 4 hours. Actual RH during this time ranged from 0.7-0.3%."}, "[2]": {"experiment": "Exposure of solids to fixed relative humidity for 11 days, XRPD", "conditions": "for form after exposure to humidity: 11 days", "text": "To determine relative humidity boundaries for conversion between Form 2 and Form 3, solids of Form 2 were exposed to P2O5 conditions (˜0% RH), 11%, and 23% RH. The solids were held at the specified humidities for 11 days to see if the longer duration would result in the presence of Form 3."}, "[3]": {"experiment": "IV formulation end user compatibility study, microscopic particulate examination", "procedure": "For the high concentration, […] of Compound I-tetrahydrate (4.0 mg/mL) was injected into a BBraun partial additive bag (PAB) for IV administration, attached to a Y-infusion set line. The other end of the Y infusion set line was connected to Lactated Ringer's Solution. Infusion is performed via the Y infusion set, such that the drug product is mixed with Lactated Ringer's Solution directly prior to administration. A total volume of 100 mL drug product at a rate of 50 mL/hr and 200 mL Lactated Ringer's Solution at a rate of 100 mL/hr were administered in a 2:1 ratio over a two hour period, to deliver 300 mL of eluent at a rate of 150 mL/hr.\nThe evaluation of particulate matter from collected IV samples was therefore performed by microscopic visual examination utilizing approximately 25 μL of IV co-infusion eluate, collected directly from the terminal end of the IV line, deposited on a microscope slide. […] The specific microscope settings used are shown below. A Positive Control sample containing a USP Particle Count Reference Standard consisting of spherical particles of known sizes between 10 μm and 15 μm (USP reference standard, Cat. No.: 1500502, lot #L0L142) was visualized under the microscope using a 10×10 lens."}, "[4]": {"experiment": "Polymorph transition study, slurry in water-methanol, XRPD", "conditions": "in the presence of water", "procedure": "The Slurry was maintained at 20° C. or at 50° C. for one week then the resulting crystals were analyzed by XRPD to determine its polymorphic form."}, "[5]": {"experiment": "USP <788> Method 1 HIAC particle count after mixing with Lactated Ringers", "conditions": "4 mg/mL mixed with Lactated Ringers 2:1, held in glass or Nalgene container", "procedure": "In USP <788> monograph, two methods were provided to determine particles or particulate matter in an injectable drug, i.e. using an analytical instrument to count particle or Method I (e.g. electronic light obscuration or HIAC method) or counting the particles using an optical microscope (Method 2). Prior to conducting the End-User Compatibility Study, a study was performed to determine the feasibility of sample collection and assessment by USP <788> Method I (HIAC analysis). For this study, Compound I-tetrahydrate (4 mg/mL) was mixed with Lactated Ringers IV Solution in a 2:1 ratio of Lactated Ringers solution to Compound I-tetrahydrate and held in a glass or Nalgene plastic container. Samples were held for 1, 5, 10, 15, 20, 25 and 30 minutes and analyzed by USP <788> Method 1 using a HIAC electronic light obscuration particle counter. […] This short time duration precluded the use of USP <788> Method 1 (HIAC) due to the large sample volumes (˜25 mL) and length of time required to collect this volume of sample, drop wise, from the infusion set."}, "[6]": {"experiment": "Effect of drying on polymorphic form, XRPD", "procedure": "Crystalline Compound I-tetrahydrate Form 2 was dried under varying temperature, pressure, and time as indicted in Table 2. After the drying, the resulting crystals were analyzed by XRPD to determine its polymorphic form."}, "[7]": {"experiment": "Dynamic vapor sorption (DVS)", "procedure": "The mass uptake of 12% is equal to three equivalents of water; however, the material was not fully dry yet after drying at 0% RH for 24 hours. […] The water uptake and release is not stepwise, and no indication of other hydrates with different ratios of water is present.\nCompound I-hydrate Form 2 was also analyzed by DVS (FIG. 14). Form 2 steadily gained 1.1 wt % from 5-95% RH. It underwent complete desorption with minor hysteresis."}, "[8]": {"conditions": "4.0 mg/mL, Y-infusion with Lactated Ringer's Solution 2:1, 120 min simulated infusion run"}}}
{"smiles": "Cc1[nH]c2ccc(F)cc2c1-c1nc2c3cccnc3c3ncccc3c2[nH]1", "note": "[Compound I-hydrate Form 2]", "values": [{"measurement": "VRH-XRPD Results", "setting": "[1]; Held at ~0.3-0.7% RH, 4 hours", "result": "Form 2 + Form 3; amount of Form 3"}, {"measurement": "VRH-XRPD Results", "setting": "[1]; Initial scan at ambient RH (46.3%)", "result": "Consistent with Form 2"}, {"measurement": "VRH-XRPD Results", "setting": "[1]; finally held at ambient RH (~40% to ~37%)", "result": "Form 2 + trace amount of Form 3"}, {"measurement": "VRH-XRPD Results", "setting": "[1]; then held at ~50% RH, 1 hour (cycling back)", "result": "Form 2, possibly contains trace"}, {"measurement": "VRH-XRPD Results", "setting": "[1]; then held at ~50% RH, 1 hour (increasing RH)", "result": "Form 2 + Form 3"}, {"measurement": "VRH-XRPD Results", "setting": "[1]; then held at ~80% RH, 1 hour (cycling back)", "result": "Form 2, possibly contains trace"}, {"measurement": "VRH-XRPD Results", "setting": "[1]; then held at ~82-79% RH, 1 hour", "result": "Form 2 + trace amount of Form 3"}, {"measurement": "VRH-XRPD Results", "setting": "[1]; then held at ~85-87% RH, 2 hours", "result": "Form 2, possibly contains trace"}, {"measurement": "form after exposure to humidity", "setting": "[2]; 11% RH", "result": "no form change"}, {"measurement": "form after exposure to humidity", "setting": "[2]; 23% RH", "result": "no form change"}, {"measurement": "form after exposure to humidity", "setting": "[2]; P2O5 conditions (~0% RH)", "result": "converts to Form 3"}, {"measurement": "relative humidity at and above which physically stable", "setting": "[2]; exposed for over a week", "result": "≥ 11", "unit": "% RH"}, {"measurement": "filter clogging or stoppage of the infusion pump", "setting": "[3]; [8]", "result": "No filter clogging"}, {"measurement": "particles by microscope examination in eluent samples", "setting": "[3]; [8]", "result": "no particles were detected"}, {"measurement": "time material may be infused without filter clogging", "setting": "[3]; \"Y-Line\" infusion set", "result": "up to 2 hours"}, {"measurement": "stability relative to Crystalline Form 1", "setting": "[4]", "result": "more stable"}, {"measurement": "time at which particulate formed at levels exceeding USP acceptance criteria", "setting": "[5]", "result": "approximately 10 minutes"}, {"measurement": "stability under various drying conditions", "setting": "[6]; 15-35 ° C., 600-0 mbar, up to 3 days", "result": "stable"}, {"measurement": "Polymorphic form by XRPD after drying", "setting": "[6]; 15 ° C., 0 mbar, drying time 1 h", "result": "Form 2"}, {"measurement": "Polymorphic form by XRPD after drying", "setting": "[6]; 15 ° C., 0 mbar, drying time 4 h", "result": "Form 1"}, {"measurement": "Polymorphic form by XRPD after drying", "setting": "[6]; 15 ° C., 0 mbar, drying time 24 h", "result": "Form 1"}, {"measurement": "Polymorphic form by XRPD after drying", "setting": "[6]; 15 ° C., 0 mbar, drying time 3 days", "result": "Form 1"}, {"measurement": "Polymorphic form by XRPD after drying", "setting": "[6]; 15 ° C., 400 mbar, drying time 1 h", "result": "Form 2"}, {"measurement": "Polymorphic form by XRPD after drying", "setting": "[6]; 15 ° C., 400 mbar, drying time 4 h", "result": "Form 2"}, {"measurement": "Polymorphic form by XRPD after drying", "setting": "[6]; 15 ° C., 400 mbar, drying time 24 h", "result": "Form 2"}, {"measurement": "Polymorphic form by XRPD after drying", "setting": "[6]; 15 ° C., 400 mbar, drying time 3 days", "result": "Form 2"}, {"measurement": "Polymorphic form by XRPD after drying", "setting": "[6]; 15 ° C., 600 mbar, drying time 1 h", "result": "Form 2"}, {"measurement": "Polymorphic form by XRPD after drying", "setting": "[6]; 15 ° C., 600 mbar, drying time 4 h", "result": "Form 2"}, {"measurement": "Polymorphic form by XRPD after drying", "setting": "[6]; 15 ° C., 600 mbar, drying time 24 h", "result": "Form 2"}, {"measurement": "Polymorphic form by XRPD after drying", "setting": "[6]; 15 ° C., 600 mbar, drying time 3 days", "result": "Form 2"}, {"measurement": "Polymorphic form by XRPD after drying", "setting": "[6]; 25 ° C., 0 mbar, drying time 1 h", "result": "Form 2"}, {"measurement": "Polymorphic form by XRPD after drying", "setting": "[6]; 25 ° C., 0 mbar, drying time 4 h", "result": "Form 1"}, {"measurement": "Polymorphic form by XRPD after drying", "setting": "[6]; 25 ° C., 0 mbar, drying time 24 h", "result": "Form 1"}, {"measurement": "Polymorphic form by XRPD after drying", "setting": "[6]; 25 ° C., 400 mbar, drying time 1 h", "result": "Form 2"}, {"measurement": "Polymorphic form by XRPD after drying", "setting": "[6]; 25 ° C., 400 mbar, drying time 4 h", "result": "Form 2"}, {"measurement": "Polymorphic form by XRPD after drying", "setting": "[6]; 25 ° C., 400 mbar, drying time 24 h", "result": "Form 2"}, {"measurement": "Polymorphic form by XRPD after drying", "setting": "[6]; 25 ° C., 400 mbar, drying time 3 days", "result": "Form 2"}, {"measurement": "Polymorphic form by XRPD after drying", "setting": "[6]; 25 ° C., 600 mbar, drying time 1 h", "result": "Form 2"}, {"measurement": "Polymorphic form by XRPD after drying", "setting": "[6]; 25 ° C., 600 mbar, drying time 4 h", "result": "Form 2"}, {"measurement": "Polymorphic form by XRPD after drying", "setting": "[6]; 25 ° C., 600 mbar, drying time 24 h", "result": "Form 2"}, {"measurement": "Polymorphic form by XRPD after drying", "setting": "[6]; 25 ° C., 600 mbar, drying time 3 days", "result": "Form 2"}, {"measurement": "Polymorphic form by XRPD after drying", "setting": "[6]; 35 ° C., 0 mbar, drying time 1 h", "result": "Form 1 and Form 2"}, {"measurement": "Polymorphic form by XRPD after drying", "setting": "[6]; 35 ° C., 0 mbar, drying time 4 h", "result": "Form 1"}, {"measurement": "Polymorphic form by XRPD after drying", "setting": "[6]; 35 ° C., 0 mbar, drying time 24 h", "result": "Form 1"}, {"measurement": "Polymorphic form by XRPD after drying", "setting": "[6]; 35 ° C., 400 mbar, drying time 1 h", "result": "Form 2"}, {"measurement": "Polymorphic form by XRPD after drying", "setting": "[6]; 35 ° C., 400 mbar, drying time 4 h", "result": "Form 2"}, {"measurement": "Polymorphic form by XRPD after drying", "setting": "[6]; 35 ° C., 400 mbar, drying time 24 h", "result": "Form 2"}, {"measurement": "Polymorphic form by XRPD after drying", "setting": "[6]; 35 ° C., 600 mbar, drying time 1 h", "result": "Form 2"}, {"measurement": "Polymorphic form by XRPD after drying", "setting": "[6]; 35 ° C., 600 mbar, drying time 4 h", "result": "Form 2"}, {"measurement": "Polymorphic form by XRPD after drying", "setting": "[6]; 35 ° C., 600 mbar, drying time 24 h", "result": "Form 2"}, {"measurement": "form change under full vacuum", "setting": "[6]; full vacuum (0 mbar) for four hours, all temperature tested", "result": "complete conversion to Form 1"}, {"measurement": "XRPD of the post-DVS solids", "setting": "[7]; after sorption to 95% RH and desorption to 5% RH", "result": "No form change"}, {"measurement": "DVS total mass uptake", "setting": "[7]; continuous isothermal adsorption of water after drying at 0% RH for 24 hours (FIGS. 7 and 8)", "result": 12, "unit": "%"}, {"measurement": "DVS weight gain", "setting": "[7]; from 5-95% RH", "result": 1.1, "unit": "wt %"}, {"measurement": "stability in DVS de-sorption cycle", "setting": "[7]; stable signal down to 10% RH", "result": "very stable"}]}
